Measured values: article PMC12268802, “The herbicidal natural product phosphonothrixin is an inhibitor of the riboflavin biosynthetic enzyme L‐3,4‐dihydroxy‐2‐butanone‐4‐phosphate synthase” (Pest Management Science, 2025)

Assays:
[1] = tested on: gramineous and broadleaf weeds; design: method as in PMID 7490218, PMID 7490219; conditions: cited from earlier work
[2] = tested on: mono‐ and dicotyledonous weed plants; experiment: Greenhouse test, pre-emergence; format: in vivo; conditions: highest application rate tested; data not shown
[3] = tested on: Lemna gibba; experiment: Lemna gibba growth assay; format: in vivo; conditions: 100 μM phosphonothrixin; 7 days
Procedure: Growth experiments were performed in sterile 6‐well cell culture plates and were initiated by transferring four Lemna gibba fronds per well to 5 mL of K‐medium[22] pH 4.8 containing 1% (w/v) sucrose and a selected concentration of phosphonothrixin (1) and riboflavin determined from previous experiments. The cell culture plates were incubated for 7 days in a growth cabinet at 22 °C and a continuous photon flux density of 75 μE/m^2s.

[4] = target: T1, AtDHBPS (Arabidopsis thaliana, UniProt P47924); experiment: Thermal stability shift analysis; format: binding; conditions: 6.5 μM AtDHBPS
T1 construct: made in house; host or cells: Escherichia coli BL21(DE3)
T1 sequence (P47924 with tags, fused parts or gaps): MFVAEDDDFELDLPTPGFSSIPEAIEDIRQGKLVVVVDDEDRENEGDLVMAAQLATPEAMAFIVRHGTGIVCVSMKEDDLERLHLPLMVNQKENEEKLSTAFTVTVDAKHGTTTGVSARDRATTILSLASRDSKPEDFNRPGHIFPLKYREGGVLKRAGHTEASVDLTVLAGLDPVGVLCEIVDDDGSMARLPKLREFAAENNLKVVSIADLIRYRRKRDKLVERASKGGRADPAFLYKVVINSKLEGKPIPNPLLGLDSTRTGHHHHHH
Procedure: AtDHBPS melting curves were determined in 96‐well microtiter plates in a Roche Light Cycler 480. The assay mixture contained 50 mM HEPES pH 7.5, 75 mM NaCl, 2.5 mM MgCl2, 7.5x SYPRO Orange and 6.5 μM AtDHBPS in a total volume of 20 μL. A linear temperature gradient from 25 to 85 °C with a ramping of 3.25 °C min^−1 was applied. Melting temperatures were determined from plots of the first derivative of the fluorescence intensity versus temperature.

CC(=O)C(O)(CO)CP(=O)(O)O (centres unmarked) [phosphonothrixin]
effect after foliar application [1]: chlorosis
effect on germination ([1]; gramineous and broadleaf weeds): significantly inhibited germination
pre-emergence herbicidal activity [2]: failed to show any pre‐emergence activity
bleaching of Lemna gibba fronds [3]: strong bleaching of the fronds
growth of Lemna gibba [3]: significant growth inhibition
ΔTm at 10 µM ([4]; compound 10 μM, read-out: shift of the melting point (deltaTm) of AtDHBPS): 4 °C
deltaTm(max) ([4]; from plot of deltaTm vs. concentration): 22.7 ± 0.6 °C
Kd ([4]; from plot of deltaTm vs. concentration, read-out: Kd-value for binding to AtDHBPS): 31.1 ± 2.8 µM
